Measurements reported in patent US20100016313A1, “INTESTINAL ALKALINE PHOSPHATASE MODULATORS AND USES THEREOF” (Burnham Institute for Medical Research, priority 2008, published 2010).

T1: human IAP (Homo sapiens, UniProt P09923)
T1 construct: made in house; host or cells: COS-1 cells, transient expression from pCMV-Script; conditioned serum-free medium used as enzyme stock
T1 sequence (P09923 20-503 limits assumed): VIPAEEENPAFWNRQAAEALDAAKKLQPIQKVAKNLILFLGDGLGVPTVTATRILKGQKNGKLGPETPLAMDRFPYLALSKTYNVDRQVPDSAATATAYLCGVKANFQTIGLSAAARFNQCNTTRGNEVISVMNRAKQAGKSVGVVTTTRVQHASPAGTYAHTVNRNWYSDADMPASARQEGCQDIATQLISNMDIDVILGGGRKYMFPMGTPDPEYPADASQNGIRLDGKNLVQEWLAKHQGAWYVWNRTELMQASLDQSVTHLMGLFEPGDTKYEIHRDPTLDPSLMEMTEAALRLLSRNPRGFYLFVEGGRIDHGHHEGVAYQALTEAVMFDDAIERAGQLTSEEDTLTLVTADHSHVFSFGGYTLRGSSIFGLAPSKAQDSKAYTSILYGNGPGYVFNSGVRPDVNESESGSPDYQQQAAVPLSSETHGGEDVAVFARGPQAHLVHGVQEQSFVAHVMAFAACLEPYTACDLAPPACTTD


What was measured:
[1] = target: T1, human IAP; assay: IAP assay using CDP-Star (chemiluminescent, dose response); format: biochemical; conditions: IAP modulators, Tables A-H, positive = inhibitor; for IC50: negative Hill coefficient = activator; for n (Hill coefficient): negative = activator
From the text: An expression vector pCMV-Script containing cDNA for human IAP, TNAP, PLAP, GCAP, mouse TNAP, dIAP, EAP or gIAP in secreted form (FLAG-tagged) is transfected into COS-1 cells for transient expression using a standard electroporation method. The GPI anchoring site is replaced by a FLAG sequence to make the proteins secreted into the media as well as to test their kinetics in a form immobilized by anti-FLAG antibody (Narisawa, et al, 2007). Medium is changed to serum free medium Opti-MEM (Invitrogen) 24 h later, and media containing secreted proteins was collected 66 hr after electroporation. Conditioned medium filtered by a 2 μm cellulose acetate membrane is supplemented with 0.1% BSA, aliquotted and stored at −80° C.
Human IAP is produced on a large scale to be used in the primary high throughput screening. For a maximum of 200,000 wells including a blank and negative control in each plate, approximately 1600 ml of the recombinant human IAP working solution (8 μl/well×200,000) is used. The working solution is a 1:80 dilution of the stock solution that has AP activity showing ΔOD405 (velocity) ˜300 in 5 min pNPP calorimetric assay. Therefore a minimum of 20 ml of the stock solution (1600÷80) is needed. An enzyme stock is prepared from ten 15 cm φ plates of COS-1 cells using 100 μg plasmid DNA [ten plates×(10 μg DNA/1×10^7 cells per 15 cm φ plate)].
Compound aliquots (4 μL at […] in 10% DMSO) are added to 8 μL of human IAP working solution of a the human IAP stock solution diluted 1:80 in assay buffer (250 mM DEA, pH 9.8, −2.5 mM MgCl2, −0.05 μM ZnCl2). The solution of substrate CDP-Star, disodium 2-chloro-5-(4-methoxyspiro{1,2-dioxetane-3,2′(5′-chloro)-tricyclo[3.3.1.1]3,7 decan}-4-yl)-1-phenyl phosphate (New England Biolabs), (8 μL of 125 μM in water) is added to each well. […] Dispensing of human IAP working solution and CDP-Star is processed using a WellMate bulk dispenser (Matrix). Plates (white 384-well small volume Greiner 784075) are incubated at room temperature for 30 min, and the luminescence signal is measured using a PerkinElmer EnVision multi-mode plate reader. L-Phenylalanine (1 mM final concentration) and 2% DMSO is utilized as an inhibition control and blank, respectively. Data analysis is processed using CBIS software (ChemInnovations, Inc).
The compound is diluted ([…] to 0.03 mM) and incubated with the human IAP enzyme for 30 min prior to addition of substrate. At the same time, human TNAP, human PLAP, human GCAP, mouse TNAP, mouse dIAP, mouse EAP and mouse gIAP is tested to determine enzyme specificity.

[2] = Kinetic parameters of recombinant mouse dIAP, gIAP and EAP using p-NPP as substrate; format: biochemical
From the text: The epithelium of the mouse small intestine expresses two intestine specific AP genes, Akp3 and Akp6, and low levels of Akp5, which is not intestine specific (Narisawa, et al, 2007). AP proteins encoded by Akp3, Akp5 and Akp6 were designated duodenal IAP or dIAP, embryonic AP or EAP and global IAP or gIAP, respectively.

[3] = p-NPP as substrate, pH 9.8, means ± SD

Row | Molecule | IC50 [1] [µM] | n (Hill coefficient) [1] | other results
1 | O=C1C2C3C=CC(C3)C2C(=O)N1c1nc(CCc2ccccc2)n[nH]1 (centres unmarked) [Compound F10] | – | 0.871 | –
2 | CCOC(=O)c1cc(-c2ccc3c(c2)OCCO3)n[nH]1 [Compound B16, ethyl 3-(2,3-dihydrobenzo[b][1,4]dioxyin-6-yl)-1H-pyrazole-5-carboxylate] | > 100 | – | –
3 | CCOC(=O)c1[nH]nc2c1COc1ccccc1-2 [Compound E3, ethyl 2,4-dihydrochromeno[3,4-c]pyrazole-3-carboxylate] | > 100 | – | –
4 | Cc1ccc(-c2cc(C(=O)O)[nH]n2)cc1C [Compound B8, 3-(3,4-dimethylphenyl)-1H-pyrazole-5-carboxylic acid] | > 100 | – | –
5 | O=C(O)c1cc(-c2ccc(F)cc2)n[nH]1 [Compound B4, 3-(4-fluorophenyl)-1H-pyrazole-5-carboxylic acid] | > 100 | – | –
6 | COC(=O)c1cc(-c2ccccc2)n[nH]1 [Compound A8, methyl 5-phenyl-1H-pyrazole-3-carboxylate] | > 100 | – | –
7 | Cc1ccc(-c2cc(C(=O)O)[nH]n2)cc1 [Compound A4, 5-(4-methylphenyl)-1H-pyrazole-3-carboxylic acid] | > 100 | – | –
8 | O=C(O)c1cc(-c2ccccc2Cl)[nH]n1 [Compound A1, 5-(2-chlorophenyl)-1H-pyrazole-3-carboxylic acid] | – | 0.9625 | –
9 | COc1ccc(OC)c(S(=O)(=O)Nc2cnc3ccccc3c2)c1 [Compound G2, 2,5-dimethoxy-N-(quinolin-3-yl)benzenesulfonamide] | > 100 | – | –
10 | COC(=O)c1cc(-c2ccc(C)cc2)[nH]n1 [Compound A9, methyl 5-(4-methylphenyl)-1H-pyrazole-3-carboxylate] | > 100 | – | –
11 | COC(=O)c1cc(-c2ccc([N+](=O)[O-])cc2)[nH]n1 [Compound A10, methyl 5-(4-nitrophenyl)-1H-pyrazole-3-carboxylate] | > 100 | – | –
12 | O=c1cc(CCO)c2c(-c3ccccc3)n[nH]c2o1 [Compound E7, 4-(2-hydroxyethyl)-3-phenylpyrano[2,3-c]pyrazol-6(1H)-one] | > 100 | – | –
13 | O=C(O)c1cc(-c2ccc3c(c2)OCCO3)n[nH]1 [Compound B11, 3-(2,3-dihydrobenzo[b][1,4]dioxyin-6-yl)-1H-pyrazole-5-carboxylic acid] | > 100 | – | –
14 | EAP: recombinant mouse embryonic alkaline phosphatase encoded by Akp5 (protein, UniProt P24823 19-502, looked up) Alkaline phosphatase, germ …: VIPVEEENPAFWNRKAAEALDAAKKLKPIQTSAKNLVILMGDGMGVSTVTATRILKGQQQGHLGPETQLAMDRFPHMALSKTYNTDKQIPDSAGTGTAFLCGVKTNMKVIGLSAAARFNQCNTTWGNEVVSVMHRAKKAGKSVGVVTTTSVQHASPAGTYAHTVNRGWYSDAQMPASALQDGCKDISTQLISNMDIDVILGGGRKFMFPKGTPDQEYPTDTKQAGTRLDGRNLVQEWLAKHQGARYVWNRSELIQASLNRSVTHLMGLFEPNDMKYEIHRDPAQDPSLAEMTEVAVRMLSRNPKGFYLFVEGGRIDHGHHETVAYRALTEAVMFDSAVDKADKLTSEQDTMILVTADHSHVFSFGGYTQRGASIFGLAPFKAEDGKSFTSILYGNGPGYKLHNGARADVTEEESSNPTYQQQAAVPLSSETHSGEDVAIFARGPQAHLVHGVQEQNYIAHVMAFAACLEPYTDCGLASPAGQSS | – | – | Km [2, 3]: 140 ± 30 µM; kcat [2, 3]: 8.4 ± 1.1 s⁻¹
15 | dIAP: recombinant mouse duodenal intestinal alkaline phosphatase encoded by Akp3 (protein, UniProt P24822 20-528, looked up) Intestinal-type alkaline …: VIPVEEENPAFWNKKAAEALDAAKKLQPIQTSAKNLIIFLGDGMGVPTVTATRILKGQLEGHLGPETPLAMDRFPYMALSKTYSVDRQVPDSASTATAYLCGVKTNYKTIGLSAAARFDQCNTTFGNEVFSVMYRAKKAGKSVGVVTTTRVQHASPSGTYVHTVNRNWYGDADMPASALREGCKDIATQLISNMDINVILGGGRKYMFPAGTPDPEYPNDANETGTRLDGRNLVQEWLSKHQGSQYVWNREQLIQKAQDPSVTYLMGLFEPVDTKFDIQRDPLMDPSLKDMTETAVKVLSRNPKGFYLFVEGGRIDRGHHLGTAYLALTEAVMFDLAIERASQLTSERDTLTIVTADHSHVFSFGGYTLRGTSIFGLAPLNALDGKPYTSILYGNGPGYVGTGERPNVTAAESSGSSYRRQAAVPVKSETHGGEDVAIFARGPQAHLVHGVQEQNYIAHVMASAGCLEPYTDCGLAPPADESQTTTTTRQTTITTTTTTTTTTTTPVHN | – | – | Km [2, 3]: 1100 ± 340 µM; kcat [2, 3]: 339 ± 13 s⁻¹; Km ([2]; pNPP assay, recombinant enzyme, repeated in text): 1100 ± 340 µM

Continued, in another order:

Row | IC50 [1] [µM] | n (Hill coefficient) [1] | Molecule | other results
16 | > 100 | – | CCOc1ccc(Cl)cc1S(=O)(=O)Nc1cccnc1 [Compound G3, 5-chloro-2-ethoxy-N-(pyridin-3-yl)benzenesulfonamide] | –
17 | 0.724 | 0.616 | O=C1C2CC=CCC2C(=O)N1c1nc(CCc2ccccc2)n[nH]1 (centres unmarked) [Compound F9, 2-(3-phenethyl-1H-1,2,4-triazol-5-yl)-3a,4,7,7a-tetrahydro-1H-isoindole-1,3(2H)-dione] | –
18 | > 100 | – | Nc1nc(N2C(=O)C3CC=CCC3C2=O)nn1-c1ccccc1 (centres unmarked) [Compound F12, 2-(5-amino-1-phenyl-1H-1,2,4-triazol-3-yl)-3a,4,7,7a-tetrahydro-1H-isoindole-1,3(2H)-dione] | –
19 | > 100 | – | CCOc1ccc(-c2cc(C(=O)O)[nH]n2)cc1 [Compound B9, 3-(4-ethoxyphenyl)-1H-pyrazole-5-carboxylic acid] | –
20 | > 100 | – | Cc1ccccc1S(=O)(=O)Nc1cc2ccccc2nc1Cl [Compound G6, N-(2-chloroquinolin-3-yl)-2-methylbenzenesulfonamide] | –
21 | 23.7 | −1.49 | COc1ccc(-c2n[nH]c3oc(=O)cc(C)c23)cc1 [Compound E4, 3-(4-methoxyphenyl)-4-methylpyrano[2,3-c]pyrazol-6(1H)-one] | –
22 | 93.4 | −1 | CC(OC(=O)c1cc(-c2ccc(Br)cc2)[nH]n1)C(=O)NC(C)(C)C (stereo not drawn) [Compound A13, 1-(tert-butylamino)-l-oxopropan-2-yl 5-(4-bromophenyl)-1H-pyrazole-3-carboxylate] | –
23 | 79.2 | 1.1 | O=C(O)c1cc(-c2ccc(O)cc2)n[nH]1 [Compound B1, 3-(4-hydroxyphenyl)-1H-pyrazole-5-carboxylic acid] | –
24 | 34.5 | −1.61 | O=C1C2CC=CCC2C(=O)N1c1ncn[nH]1 (centres unmarked) [Compound F4, 2-(1H-1,2,4-triazol-5-yl)-3a,4,7,7a-tetrahydro-1H-isoindole-1,3(2H)-dione] | –
25 | 86.4 | −0.563 | CC(=O)Nc1nnc(SCc2ccc(Br)cc2)[nH]1 [Compound H2, N-[5-(4-bromobenzylthio)-4H-1,2,4-triazol-3-yl)acetamide] | –
26 | 9.32 | −1.3 | COC(=O)c1cc(-c2ccc(Cl)cc2Cl)n[nH]1 [Compound B12, methyl 3-(2,4-dichlorophenyl)-1H-pyrazole-5-carboxylate] | –
27 | 0.0613 | 1.01 | O=C1C2CCCCC2C(=O)N1c1nc(Cc2ccccc2)n[nH]1 (centres unmarked) [Compound F2, 2-(3-benzyl-1H-1,2,4-triazol-5-yl)-hexahydro-1H-isoindole-1,3(2H)-dione] | –
